Measurements reported in paper PMC9078525, “Inhibitory effects of garcinone E on fatty acid synthase” (RSC Advances, 2018).
Read-outs that look alike come from different tables or passages of the source. Each block holds one molecule with its values, some of them ahead of it.

How the values were obtained:
[1] = target: T1, chicken FAS (overall reaction) (Gallus gallus, UniProt P12276); experiment: Time-dependent (slow-binding irreversible) inactivation of FAS overall reaction; assay type: biochemical
T1 construct: tissue Huadu Broiler Corporation, Beijing; host or cells: chicken liver
T1 sequence (P12276 whole entry): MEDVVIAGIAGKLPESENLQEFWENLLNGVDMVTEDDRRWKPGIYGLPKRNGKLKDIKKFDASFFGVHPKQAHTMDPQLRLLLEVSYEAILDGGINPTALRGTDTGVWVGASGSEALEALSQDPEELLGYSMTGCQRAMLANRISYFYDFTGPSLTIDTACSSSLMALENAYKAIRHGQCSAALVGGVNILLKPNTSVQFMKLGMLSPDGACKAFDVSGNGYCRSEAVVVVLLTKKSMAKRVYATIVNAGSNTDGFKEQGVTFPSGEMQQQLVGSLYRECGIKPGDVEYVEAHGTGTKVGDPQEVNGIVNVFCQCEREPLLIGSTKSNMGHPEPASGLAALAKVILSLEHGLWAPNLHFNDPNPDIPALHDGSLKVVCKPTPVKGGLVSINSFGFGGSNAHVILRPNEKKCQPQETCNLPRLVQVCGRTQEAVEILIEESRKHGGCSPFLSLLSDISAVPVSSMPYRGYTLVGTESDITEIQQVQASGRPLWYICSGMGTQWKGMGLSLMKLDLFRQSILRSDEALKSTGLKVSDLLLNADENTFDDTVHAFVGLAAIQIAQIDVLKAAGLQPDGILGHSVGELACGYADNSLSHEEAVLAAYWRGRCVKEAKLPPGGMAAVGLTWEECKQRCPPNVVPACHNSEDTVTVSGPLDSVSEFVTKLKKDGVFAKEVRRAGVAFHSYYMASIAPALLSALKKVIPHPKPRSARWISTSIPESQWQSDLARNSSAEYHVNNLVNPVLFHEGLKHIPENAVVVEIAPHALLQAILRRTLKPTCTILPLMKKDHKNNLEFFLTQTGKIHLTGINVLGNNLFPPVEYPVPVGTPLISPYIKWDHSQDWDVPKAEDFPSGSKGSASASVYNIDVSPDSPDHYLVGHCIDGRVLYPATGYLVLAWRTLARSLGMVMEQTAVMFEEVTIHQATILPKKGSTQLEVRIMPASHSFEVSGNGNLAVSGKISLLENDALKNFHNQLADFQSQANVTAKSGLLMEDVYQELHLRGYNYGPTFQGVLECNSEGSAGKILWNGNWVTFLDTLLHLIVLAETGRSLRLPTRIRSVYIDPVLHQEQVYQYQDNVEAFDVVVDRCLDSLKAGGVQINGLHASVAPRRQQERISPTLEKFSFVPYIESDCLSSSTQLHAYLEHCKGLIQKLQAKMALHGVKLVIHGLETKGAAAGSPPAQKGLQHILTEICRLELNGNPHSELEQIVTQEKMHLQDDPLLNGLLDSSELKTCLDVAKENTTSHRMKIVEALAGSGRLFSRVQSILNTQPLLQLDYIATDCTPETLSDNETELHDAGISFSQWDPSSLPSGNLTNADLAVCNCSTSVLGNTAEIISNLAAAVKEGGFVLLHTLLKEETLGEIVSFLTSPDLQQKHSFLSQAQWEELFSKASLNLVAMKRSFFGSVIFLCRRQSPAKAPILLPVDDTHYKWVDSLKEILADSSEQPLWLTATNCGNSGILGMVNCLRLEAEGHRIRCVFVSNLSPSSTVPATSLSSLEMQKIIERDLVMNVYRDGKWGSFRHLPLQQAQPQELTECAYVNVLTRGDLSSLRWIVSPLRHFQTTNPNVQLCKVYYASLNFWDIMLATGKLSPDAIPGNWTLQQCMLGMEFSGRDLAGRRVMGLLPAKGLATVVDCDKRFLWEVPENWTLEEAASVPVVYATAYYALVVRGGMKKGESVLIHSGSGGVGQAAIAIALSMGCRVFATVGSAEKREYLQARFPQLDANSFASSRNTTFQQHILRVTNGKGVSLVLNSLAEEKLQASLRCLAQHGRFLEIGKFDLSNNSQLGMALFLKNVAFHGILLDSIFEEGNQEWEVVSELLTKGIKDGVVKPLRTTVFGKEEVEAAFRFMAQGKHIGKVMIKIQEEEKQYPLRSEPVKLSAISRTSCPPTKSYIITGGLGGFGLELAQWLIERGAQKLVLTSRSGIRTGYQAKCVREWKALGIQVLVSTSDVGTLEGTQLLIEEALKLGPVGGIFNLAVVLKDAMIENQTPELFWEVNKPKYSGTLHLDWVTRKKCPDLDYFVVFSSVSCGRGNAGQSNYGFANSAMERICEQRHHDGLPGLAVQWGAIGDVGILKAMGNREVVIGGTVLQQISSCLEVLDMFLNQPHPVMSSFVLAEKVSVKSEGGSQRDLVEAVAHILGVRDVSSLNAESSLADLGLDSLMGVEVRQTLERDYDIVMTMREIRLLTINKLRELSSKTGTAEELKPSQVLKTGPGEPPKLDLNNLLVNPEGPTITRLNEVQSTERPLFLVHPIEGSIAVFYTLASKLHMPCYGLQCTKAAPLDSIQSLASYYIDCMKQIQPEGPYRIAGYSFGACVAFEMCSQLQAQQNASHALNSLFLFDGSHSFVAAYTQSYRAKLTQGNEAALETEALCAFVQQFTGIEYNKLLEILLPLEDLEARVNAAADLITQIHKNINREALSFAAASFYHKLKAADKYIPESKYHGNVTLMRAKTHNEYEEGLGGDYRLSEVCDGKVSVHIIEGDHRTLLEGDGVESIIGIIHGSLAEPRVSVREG
Protocol: (§1) Assay of time-dependent inhibition activity was carried out as previous described.[13] The FAS solution was mixed with garcinone E and incubated at 25 °C, and then aliquots were taken to measure the remaining activity at the indicated time intervals to obtain the time course. […] The rate constant of FAS inactivation can be calculated from a semi-log plot of the time course, which is based upon the formula ln At/A0 = −kobst. The At/A0 expresses the remaining activity at t time, and kobs is the observed rate constant. Based on earlier studies, the inhibition of FAS activity is due to both fast-binding and time-dependent inhibitions, although sometimes the fast-binding reversible inhibition is not potent enough to affect the enzyme.

[2] = system: FAS; settings: cited from earlier work
[3] = target: T1, chicken FAS (overall reaction); experiment: Fast-binding inhibition of FAS overall reaction (NADPH absorption at 340 nm); assay type: biochemical; settings: fast-binding reversible inhibition, 37 °C; read-out: IC50 (half-inhibitory concentration), overall reaction of FAS
Protocol: (§2) The preparation of FAS from chicken liver (Huadu Broiler Corporation, Beijing) was performed as described previously.[24] The amino acid sequence of chicken FAS has 63% identity with the sequence of human enzyme.[25] All animal operations followed the Guidelines for the Care and Use of Laboratory Animals established by the National Research Council (US) Institute for Laboratory Animal Research. The purified FAS was homogenized by polyacrylamide gel electrophoresis in the presence and absence of sodium dodecyl sulfate, respectively.
(§3) The FAS activity was measured at 37 °C by spectrophotometer at 340 nm of NADPH absorption. The overall reaction system contained 100 mM KH2PO4–K2HPO4 buffer, 1 mM EDTA, 1 mM dithiothreitol, 3 μM Ac-CoA, 10 μM Mal-CoA, 35 μM NADPH, and 10 μg FAS in a total volume of 2 ml as previously described.[26,27] The assay for β-ketoacyl reduction activity of FAS was catalyzed by KR containing 100 mM KH2PO4–K2HPO4 buffer, 200 mM ethyl acetoacetate, 35 μM NADPH, and 20 μg FAS in a total volume of 2 ml (pH 7.0).
Reversible inhibition was determined by adding the inhibitor to the reaction system before the reaction was initiated. The activities of FAS in the presence and absence of garcinone E (dissolved in DMSO) were designated as Ai and A0 respectively. The value of Ai/A0 × 100% was defined as the relative activity (R.A.) of FAS. […]

[4] = target: T2, KR (β-ketoacyl reductase) of chicken FAS (Gallus gallus, UniProt P12276); experiment: Fast-binding inhibition of β-ketoacyl reduction (KR) activity of FAS; assay type: biochemical; settings: fast-binding reversible inhibition, 37 °C
T2 construct: tissue Huadu Broiler Corporation, Beijing; host or cells: chicken liver
T2 sequence (P12276 whole entry): as above
Protocol: as §2, §3
(§4) The activity of KR was determined at 37 °C by measuring the change of absorption at 340 nm. The KR reaction mixture (2 ml) contained 40 mM ethyl acetoacetate, 35 μM NADPH, 1 mM EDTA, 1 mM DTT and 10 μg of FAS in 100 mM phosphate buffer, pH 7.0.[28]

[5] = target: T2, KR (β-ketoacyl reductase) of chicken FAS; experiment: Time-dependent inactivation of KR reaction of FAS; assay type: biochemical
Protocol: as §4, §1

[6] = target: T1, chicken FAS (overall reaction); experiment: Enzyme inhibition kinetics (double reciprocal plots, variable substrate); assay type: biochemical; settings: for Ki: secondary plot of slopes, read-out: Inhibition constant Kis; for Inhibition constant Kii: secondary plot of intercepts
Source text: Possible interference by the inhibitor at each substrate binding site was examined by holding the concentration of the inhibitor at several fixed levels respectively, and increasing one substrate concentration while keeping the concentrations of the other substrates constant. Double reciprocal plots for every concentration of the inhibitor were yielded to estimate the competitive relationship between the variable substrate and inhibitor concentrations. This study is based on fast-binding inhibition.
Inhibition kinetics study was carried out to elucidate the mechanism of the reversible inhibition of FAS by garcinone E. Possible interference by garcinone E at each substrate-binding site was examined by holding the concentration of garcinone E at a constant value, and measuring the effect of increasing one substrate concentration (the concentrations of the other two substrates were fixed) on the initial reaction rate. Double-reciprocal plots of the results (Fig. 3A–C) yielded three families of straight lines, which had different intersections, for three substrates of FAS. […] However, the lines for NADPH (Fig. 3C) intersected on the X axis, from which it was concluded that garcinone E was a typically noncompetitive inhibitor of FAS against NADPH.
Fig. 3 Lineweaver–Burke plots for inhibition of FAS activity by garcinone E. Double reciprocal plots for inhibition of FAS by garcinone E. The activity of the overall reaction of FAS was measured. (A) The concentrations of Mal-CoA and NADPH were fixed at 10 μM and 35 μM, respectively. Ac-CoA was the variable substrate. […] (B) The concentrations of Ac-CoA and NADPH were fixed at 3 μM and 35 μM, respectively. Mal-CoA was the variable substrate. […] (C) The concentrations of Ac-CoA and Mal-CoA were fixed at 3 μM and 10 μM, respectively. NADPH was the variable substrate. […] Each datum was the mean from 2–5 experiments.

[7] = target: T3, chicken FAS (Gallus gallus, UniProt P12276); experiment: Substrate protection for time-dependent inactivation of FAS; assay type: biochemical; settings: 10.0 μM garcinone E
T3 construct: tissue Huadu Broiler Corporation, Beijing; host or cells: chicken liver
T3 sequence (P12276 whole entry): as above
Protocol: as §1
Furthermore, substrate protection for time-dependent inhibition was examined in the measurement of FAS inactivation by garcinone E with 10 μM Ac-CoA, 10 μM Mal-CoA, or 10 μM NADPH, respectively. Inactivation in the same condition but without any substrate was the control. […] Therefore, the substrates of Mal-CoA and NADPH had no obvious protection effect. However, the inactivation was slowed by Ac-CoA.

SMILES: COc1c(O)cc2oc3cc(O)c(CC=C(C)C)c(O)c3c(=O)c2c1CC=C(C)C [α-mangostin]
time-dependent (slow-binding irreversible) inhibition of FAS overall reaction, in words [1]: none of them showed slow-binding inactivation

SMILES: CC(C)=CCc1c(O)cc2oc3cc(O)c(O)c(CC=C(C)C)c3c(=O)c2c1O [γ-mangostin]
time-dependent (slow-binding irreversible) inhibition of FAS overall reaction, in words [1]: none of them showed slow-binding inactivation

SMILES: C/C=C/C/C=C/CCC(=O)[C@H]1O[C@H]1C(N)=O [cerulenin]
IC50 [2]: 89 µM

IC50 [3]: 3.3 µM
IC50 [4]: 14.6 µM
time-dependent (slow-binding irreversible) inhibition of FAS overall reaction, in words [1]: slow-binding irreversible inhibition
fold difference in inactivation rate between overall reaction and KR ([1]; 20.0 μM garcinone E): more than 20 fold
irreversible inhibition on KR, in words [5]: very weak
kobs of FAS inactivation, KR ([5]; 20.0 μM garcinone E, incubated at 25 °C): 0.0004 min⁻¹
Inhibitory manner ([6]; variable substrate Ac-CoA, Mal-CoA 10 μM, NADPH 35 μM): Competitive
Ki ([6]; variable substrate Ac-CoA): 1.77 µM
Inhibitory manner ([6]; variable substrate Mal-CoA, Ac-CoA 3 μM, NADPH 35 μM): Mixed competitive and noncompetitive
Inhibition constant Kii ([6]; variable substrate Mal-CoA, binding with enzyme-substrate complex): 5.99 µM
Ki ([6]; variable substrate Mal-CoA): 3.89 µM
Inhibitory manner ([6]; variable substrate NADPH, Ac-CoA 3 μM, Mal-CoA 10 μM): Noncompetitive
Inhibition constant Kii ([6]; variable substrate NADPH): 2.67 µM
Ki ([6]; variable substrate NADPH): 1.94 µM
kobs for inactivation of FAS ([7]; no protection): 17.4 10^−3 min^−1
reduction of apparent rate constant by pre-incubation with substrate ([7]; pre-incubation with Mal-CoA and NADPH): less than 10%
kobs for inactivation of FAS ([7]; protection by 10 μM Ac-CoA): 5.3 10^−3 min^−1
kobs for inactivation of FAS ([7]; protection by 10 μM Mal-CoA): 16.6 10^−3 min^−1
kobs for inactivation of FAS ([7]; protection by 10 μM NADPH): 15.9 10^−3 min^−1
SMILES: CC(C)=CCc1c(O)cc2oc3c(CC=C(C)C)c(O)c(O)c(CC=C(C)C)c3c(=O)c2c1O [garcinone E, 2,3,6,8-tetrahydroxy-1,4,7-tris(3-methylbut-2-enyl)-9H-xanthen-9-one]

SMILES: O=C(O[C@@H]1Cc2c(O)cc(O)cc2O[C@@H]1c1cc(O)c(O)c(O)c1)c1cc(O)c(O)c(O)c1 [EGCG, epigallocatechin gallate]
IC50 [2]: 52 µM

SMILES: COc1cc2oc3cc(O)c(OC)c(CC=C(C)C)c3c(=O)c2c(O)c1CC=C(C)C [β-mangostin]
time-dependent (slow-binding irreversible) inhibition of FAS overall reaction, in words [1]: none of them showed slow-binding inactivation
